This is an account of results in US5776718A, “Reversible protease inhibitors” (Arris Pharmaceutical Corporation, priority 1996, dated 1998).

Like-named read-outs stand apart in the source and are kept apart here. A value given as a limit tells only on which side of the number the result lay.

The target of one experiment is cruzain (Trypanosoma cruzi, UniProt P25779). Description: Inhibition of cruzain (conditions as for cathepsin L). Type of experiment: biochemical, T. cruzi. How it is done:
(§1) Conditions for cathepsin L: 50 mM acetate, pH 5.5, 2.5 mM EDTA, 2.5 mM DTT. substrate: [Z-Phe-Arg-AMC]=[…] (Km=2 mM). The assay at 25^0 was started by the addition of cat L (final concentration approx 1 nM) and the increase in fluorescence at 450 nm with excitation at 380 nm was followed over 2 min. The depression in the rate of substrate hydrolysis following addition of varying concentrations of inhibitors was noted. The assay was linear throughout the range observed. Duplicate runs were measured.
Conditions for cruzain were the same as for cathepsin L with the exception that the Km for the substrate was 1 mM.
(§2) The respective Ki values were estimated by using the Dixon plot as described by Irwin Segel in Enzyme Kinetics: Behavior and analysis of rapid equilibrium and steady-state enzyme systems, 1975, Wiley-lnterscience Publication, John Wiley & Sons, New York.

Another experiment deals with cathepsin B (Homo sapiens, UniProt P07858). Description: Inhibition of cathepsin B, fluorogenic substrate Z-Arg-Arg-AMC. The class given is biochemical. As for the experimental part:
The assay at 250 was started by the addition of cat B (final concentration approx 10 nM) and the increase in fluorescence at 450 nm with excitation at 380 nm was followed over 2 min. The depression in the rate of substrate hydrolysis following addition of varying concentrations of inhibitors was noted. The assay was linear throughout the range observed. Duplicate runs were measured.
as §2

The target of a further experiment is cathepsin L (Homo sapiens, UniProt P07711). Description: Inhibition of cathepsin L, fluorogenic substrate Z-Phe-Arg-AMC. The class given is biochemical. How it is done:
as §1, §2

For another experiment, the target named is cathepsin S (Homo sapiens, UniProt P25774). Description: Inhibition of cathepsin S, fluorogenic substrate Z-Val-Val-Arg-AMC. The settings on record: 50 mM phosphate, pH 6.5, 2.5 mM EDTA, 2.5 mM DTT; Dixon plot. Type of experiment: biochemical. How it is done: The assay at 250 was started by the addition of cat S (final concentration approx […]) and the increase in fluorescence at 450 nm with excitation at 380 nm was followed over 2 min. The depression in the rate of substrate hydrolysis following addition of varying concentrations of inhibitors was noted. The assay was linear throughout the range observed. Duplicate runs were measured.
Chain of cathepsin S (P25774 115-331, species assumed): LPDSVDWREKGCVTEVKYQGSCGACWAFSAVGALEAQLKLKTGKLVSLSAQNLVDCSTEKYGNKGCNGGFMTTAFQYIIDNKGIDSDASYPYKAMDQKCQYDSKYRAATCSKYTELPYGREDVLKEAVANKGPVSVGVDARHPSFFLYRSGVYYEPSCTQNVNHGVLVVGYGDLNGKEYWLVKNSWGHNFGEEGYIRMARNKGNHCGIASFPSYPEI
as §2

Setting [1] is: 50 mM acetate, pH 5.5, 2.5 mM EDTA, 2.5 mM DTT, Km 1 mM, Dixon plot, read-out: cruzain (Ki μM).
The mark [2] stands for this setting: 50 mM phosphate, pH 6.0, 2.5 mM EDTA, 2.5 mM DTT, Dixon plot, read-out: cathepsin B (Ki μM).
[3] abbreviates: 50 mM acetate, pH 5.5, 2.5 mM EDTA, 2.5 mM DTT, Dixon plot, read-out: cathepsin L (Ki μM).

Chain of cruzain (P25779 123-467): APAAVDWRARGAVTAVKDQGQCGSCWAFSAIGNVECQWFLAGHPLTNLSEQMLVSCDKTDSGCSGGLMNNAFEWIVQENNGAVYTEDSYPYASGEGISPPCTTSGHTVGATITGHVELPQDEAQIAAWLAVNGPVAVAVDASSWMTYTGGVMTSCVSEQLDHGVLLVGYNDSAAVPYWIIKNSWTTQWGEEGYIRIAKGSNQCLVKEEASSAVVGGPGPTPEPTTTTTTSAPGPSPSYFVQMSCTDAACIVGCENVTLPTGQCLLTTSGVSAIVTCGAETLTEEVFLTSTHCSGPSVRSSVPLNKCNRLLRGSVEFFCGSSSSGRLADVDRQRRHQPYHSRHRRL
Chain of cathepsin L (P07711 114-333, species assumed): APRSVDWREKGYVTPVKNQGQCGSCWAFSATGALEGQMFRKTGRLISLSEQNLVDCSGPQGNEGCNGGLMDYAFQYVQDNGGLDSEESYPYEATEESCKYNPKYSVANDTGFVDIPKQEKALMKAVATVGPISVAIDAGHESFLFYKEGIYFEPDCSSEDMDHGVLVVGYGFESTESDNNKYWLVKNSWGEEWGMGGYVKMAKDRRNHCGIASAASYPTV

Turning to `COC(=O)CCC(=O)N[C@@H](Cc1ccccc1)C(=O)N[C@@H](CCc1ccccc1)CCS(=O)(=O)c1ccccc1` [MeOSuc--Phe--HphγSO2 Ph, methyl 3-{2-phenyl-1S-[3-phenyl-1S-(2-phenylsulfonylethyl)propylcarbamoyl]ethylcarbamoyl}propionate], the Ki (usually a measure of affinity in units of concentration, obtained from inhibition or displacement) is 4.7 µM at cruzain (setting [1]), 81 µM on cathepsin B (setting [2]) and 3.2 µM on cathepsin L (setting [3]).

In the case of `CC(C)C[C@H](NC(=O)N1CCOCC1)C(=O)NC(CCc1ccccc1)S(=O)(=O)Cc1ccccc1` (stereo partly drawn) [Mu--Leu--HphαSO2 Bzl, N^2-(4-morpholinylcarbonyl)-N^1-(3-phenyl-1-benzylsulfonylpropyl)-L-leucinamide], the Ki on cruzain (setting [1]) was 0.76 µM; on cathepsin B (setting [2]), 54 µM; on cathepsin S it was 4.2 µM; on cathepsin L (setting [3]), 0.6 µM.

For the compound `O=C(N[C@@H](CCc1ccccc1)CCS(=O)(=O)c1ccc2ccccc2c1)[C@H](Cc1ccc2ccccc2c1)NC(=O)N1CCOCC1` [Mu--Np2-HphγSO2 Np, N^2-(4-morpholinylcarbonyl)-N^1 -{3-phenyl-1S-[2-(2-naphthylsulfonyl)ethyl]propyl}-β-(2-naphthyl)-L-alaninamide], the Ki on cruzain (setting [1]) was determined as 0.1 µM; at cathepsin B (setting [2]), 20 µM; at cathepsin L (setting [3]), 0.26 µM.

`O=C(NC(CCc1ccccc1)S(=O)(=O)c1ccccc1)[C@H](Cc1ccccc1)NC(=O)N1CCOCC1` (stereo partly drawn) [Mu--Phe--(DL)HphαSO2 Ph,] came in with a Ki at cathepsin S of 3.7 µM.

Regarding `Nc1ccc(CC[C@H](CCc2ccccc2)NC(=O)[C@H](Cc2ccccc2)NC(=O)N2CCOCC2)cc1` [Mu--Phe--Hph--γPh--NH2, N^2-(4-morpholinylcarbonyl)-N^1 -{3-phenyl-1S-[2-(4-aminophenyl)ethyl]propyl}-L-phenylalaninamide], the figures for the Ki at cruzain (setting [1]) and on cathepsin L (setting [3]) were 3 µM and 2.9 µM, respectively.

As for `COc1ccc(CC[C@H](CCc2ccccc2)NC(=O)[C@H](Cc2ccccc2)NC(=O)N2CCOCC2)cc1` [Mu--Phe--Hph-γPh--OMe, N^2-(4-morpholinylcarbonyl)-N^1 -{3-phenyl-1S-[2-(4-methoxyphenyl)ethyl]propyl}-L-phenylalaninamide], the figures for the Ki on cruzain (setting [1]), on cathepsin B (setting [2]) and on cathepsin L (setting [3]) were 0.89 µM, 4.8 µM and 0.94 µM, respectively.

For the compound `O=C(NC(CCc1ccccc1)S(=O)(=O)Cc1ccccc1)[C@H](Cc1ccccc1)NC(=O)N1CCOCC1` (stereo partly drawn) [Mu--Phe--HphαSO2 Bzl, N^2-(4-morpholinylcarbonyl)-N^1-(3-phenyl-1-benzylsulfonylpropyl)-L-phenylalaninamide], the Ki on cruzain (setting [1]) was found to be 0.92 µM; at cathepsin B (setting [2]), 77 µM; on cathepsin L (setting [3]), 1.2 µM.

Turning to `O=C(NC(CCc1ccccc1)S(=O)(=O)C(F)(F)F)[C@H](Cc1ccccc1)NC(=O)N1CCOCC1` (stereo partly drawn) [Mu--Phe--HphαSO2 CR3, N^2-(4-morpholinylcarbonyl)-N^1-(3-phenyl-1-trifluoromethylsulfonylpropyl)-L-phenylalaninamide], the Ki on cruzain (setting [1]) was 0.23 µM; on cathepsin B (setting [2]), 50 µM; at cathepsin L (setting [3]), 0.18 µM.

Turning to `O=C(N[C@@H](CCc1ccccc1)S(=O)(=O)c1ccccc1)[C@H](Cc1ccccc1)NC(=O)N1CCOCC1` [Mu--Phe--HphαSO2 Ph], on cathepsin S, affinity was put at a Ki of 2.6 µM.

For the compound `O=C(N[C@@H](CCc1ccccc1)CS(=O)(=O)c1ccccc1)[C@H](Cc1ccccc1)NC(=O)N1CCOCC1` [Mu--Phe--HphβSO2 Ph, N^1-(4-morpholinylcarbonyl)-N^1-(3-phenyl-1S-phenylsulfonylmethylpropyl)-L-phenylalaniamide], the Ki at cruzain (setting [1]) was 5.7 µM; at cathepsin B (setting [2]) it was 1100 µM; at cathepsin L (setting [3]), 29 µM.

`CCOC(=O)CC[C@H](CCc1ccccc1)NC(=O)[C@H](Cc1ccccc1)NC(=O)N1CCOCC1` [Mu--Phe--HphγCO2 Et, ethyl 4S-[N-(4-morpholinylcarbonyl)-L-phenylalanylamino]-6-phenylhexanoate]: the Ki is 0.91 µM at cruzain (setting [1]), 1.6 µM on cathepsin B (setting [2]) and 0.48 µM on cathepsin L (setting [3]).

Turning to `O=C(CC[C@H](CCc1ccccc1)NC(=O)[C@H](Cc1ccccc1)NC(=O)N1CCOCC1)NCc1ccccc1` [Mu--Phe--HphγCONHBzl, N^2-(4-morpholinylcarbonyl)-N^1-[3-phenyl-1S-(2-benzylcarbamoylethyl)propyl]-L-phenylalaninamide], the Ki was found to be 7.7 µM on cruzain (setting [1]) and 19 µM at cathepsin L (setting [3]).

`O=C(CC[C@H](CCc1ccccc1)NC(=O)[C@H](Cc1ccccc1)NC(=O)N1CCOCC1)Nc1ccccc1` [Mu--Phe--HphγCONHPh, N^2-(4-morpholinylcarbonyl)-N^1-[3-phenyl-1S-(2-phenylcarbamoylethyl)propyl]-L-phenylalaninamide]: the results for the Ki at cruzain (setting [1]), at cathepsin B (setting [2]) and at cathepsin L (setting [3]) were 0.13 µM, 2.6 µM and 2 µM, respectively.

`CCOP(=O)(CC[C@H](CCc1ccccc1)NC(=O)[C@H](Cc1ccccc1)NC(=O)N1CCOCC1)OCC` [Mu--Phe--HphγPO(O2 Et)2]: the Ki on cruzain came to 15 µM; at cathepsin B it was 17 µM; on cathepsin L, 3 µM.

With `O=C(N[C@@H](CCc1ccccc1)CCS(=O)(=O)CCc1ccccc1)[C@H](Cc1ccccc1)NC(=O)N1CCOCC1` [Mu--Phe--HphγSO2 EtPh, N^2-(4-morpholinylcarbonyl)-N^1 -{3-phenyl-1S-[2-(2-phenylethylsulfonyl)ethyl]propyl}-L-phenylalaninamide], the Ki worked out at 5.9 µM on cruzain (setting [1]) and 0.17 µM at cathepsin L (setting [3]).

Consider `O=C(N[C@@H](CCc1ccccc1)CCS(=O)(=O)c1ccccc1)[C@H](Cc1ccccc1)NC(=O)N1CCOCC1` [Mu--Phe--HphγSO2 Ph, N^2-(4-morpholinylcarbonyl)-N^1-[3-phenyl-1S-(2-phenylsulfonylethyl)propyl]-L-phenylalaninamide], for which the inhibition constant (Ki) turned out to be 4.3 µM at cruzain (setting [1]), 48 µM at cathepsin B (setting [2]) and 10 µM on cathepsin L (setting [3]).

As to `O=C(N[C@@H](CCc1ccccc1)CCS(=O)(=O)c1ccccc1)[C@H](Cc1ccc(O)cc1)NC(=O)N1CCOCC1` [Mu--Tyr--HphγSO2 Ph, (S)-3-(4-morpholinecarbonyltyrosyl)-amino-5-phenyl-1-phenylsulfonylpentane], the Ki at cruzain turned out to be 20 µM; on cathepsin L (setting [3]), 2.3 µM.

Regarding `O=C(Cc1ccccc1)N[C@@H](Cc1ccccc1)C(=O)N[C@@H](CCc1ccccc1)CCS(=O)(=O)c1ccccc1` [Phac--Phe--HphγSO2 Ph, N^2-phenylacetyl-N^1-[3-phenyl-1S-(2-phenylsulfonylethyl)propyl]-L-phenylalaninamide], the Ki was 1.8 µM at cruzain (setting [1]), > 10 µM on cathepsin B (setting [2]) and 0.41 µM at cathepsin L (setting [3]).

For the compound `O=C(O)CCC(=O)N[C@@H](Cc1ccc2ccccc2c1)C(=O)N[C@@H](CCc1ccccc1)CCS(=O)(=O)c1ccc2ccccc2c1` [Suc--Np2--HphγSO2 2Np], the Ki on cruzain (setting [1]) is 0.23 µM; on cathepsin B (setting [2]), > 1000 µM; on cathepsin L (setting [3]), 0.11 µM.

As for `O=C(O)CCC(=O)N[C@@H](Cc1ccc2ccccc2c1)C(=O)N[C@@H](CCc1ccccc1)CCS(=O)(=O)c1ccccc1` [Suc--Np2--HphγSO2 Ph, 3-{2-naphthyl-1S-[3-phenyl-1S-(2-phenylsulfonylethyl)propylcarbamoyl]ethylcarbamoyl}propionic acid], the Ki is 0.78 µM on cruzain (setting [1]), > 1000 µM on cathepsin B (setting [2]) and 2.3 µM at cathepsin L (setting [3]).

Turning to `O=C(O)CCC(=O)N[C@@H](Cc1ccccc1)C(=O)N[C@@H](CCc1ccccc1)CCS(=O)(=O)c1ccccc1` [Suc--Phe--HphγSO2 Ph, 3-{2-phenyl-1S-[3-phenyl-1S-(2-phenylsulfonylethyl)propylcarbamoyl]ethylcarbamoyl}propionic acid], the Ki is 1.5 µM on cruzain (setting [1]), > 1000 µM on cathepsin B (setting [2]) and 1 µM at cathepsin L (setting [3]).

Regarding `O=C(CCNC(=O)OCc1ccccc1)N[C@@H](Cc1ccccc1)C(=O)N[C@@H](CCc1ccccc1)CCS(=O)(=O)c1ccccc1` [Z--β-Ala--Phe--HphγSO2 Ph, M-(N-benzyloxycarbonyl-β-alanyl)-N^1-[3-phenyl-1S-(2-phenylsulfonylethyl)propyl]-L-phenylalaninamide], the Ki was 0.54 µM at cruzain (setting [1]), 52 µM at cathepsin B (setting [2]) and 0.79 µM at cathepsin L (setting [3]).

As to `NCCC(=O)N[C@@H](Cc1ccccc1)C(=O)N[C@@H](CCc1ccccc1)CCS(=O)(=O)c1ccccc1` [β-Ala--Phe--HphγSO2 Ph, N^2-(β-alanyl)-N^1-[3-phenyl-1S-(2-phenylsulfonylethyl)propyl]-L-phenylalaninamide], the Ki at cruzain (setting [1]) and at cathepsin L (setting [3]) was 14 µM each time.
